These results are taken from patent EP4342890A1, “PLATFORM AND SCAFFOLD FOR FAP TARGETING AGENTS” (Erasmus University Rotterdam Medical Center, priority 2022, dated 2024).

Assay type in all cases: biochemical
Test [1] addresses T1, PREP (Homo sapiens, UniProt P48147).
T1 sequence (P48147 1-710): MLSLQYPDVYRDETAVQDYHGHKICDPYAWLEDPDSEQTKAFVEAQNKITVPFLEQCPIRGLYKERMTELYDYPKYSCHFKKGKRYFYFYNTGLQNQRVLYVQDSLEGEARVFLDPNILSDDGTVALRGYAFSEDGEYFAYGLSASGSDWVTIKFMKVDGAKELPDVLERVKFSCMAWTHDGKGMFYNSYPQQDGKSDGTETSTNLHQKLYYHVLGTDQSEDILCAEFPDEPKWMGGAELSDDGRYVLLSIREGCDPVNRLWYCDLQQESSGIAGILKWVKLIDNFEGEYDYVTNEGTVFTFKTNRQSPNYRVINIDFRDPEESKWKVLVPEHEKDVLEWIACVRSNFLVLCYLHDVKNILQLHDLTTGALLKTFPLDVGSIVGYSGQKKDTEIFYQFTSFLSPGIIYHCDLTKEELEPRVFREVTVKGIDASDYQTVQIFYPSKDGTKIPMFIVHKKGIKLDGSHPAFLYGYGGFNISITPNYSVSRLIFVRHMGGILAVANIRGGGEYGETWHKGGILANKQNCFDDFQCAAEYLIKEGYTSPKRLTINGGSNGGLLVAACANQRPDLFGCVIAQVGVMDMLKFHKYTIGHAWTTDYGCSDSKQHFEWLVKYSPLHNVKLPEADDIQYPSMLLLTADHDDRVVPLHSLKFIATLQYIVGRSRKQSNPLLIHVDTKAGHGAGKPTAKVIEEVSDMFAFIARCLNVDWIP
Kind of test: In vitro inhibition assay on PREP (Z-GP-AMC substrate). Conditions: enzymatic assay; 20 µM substrate, 2 nM PREP; unit inferred. On the procedure: Enzymatic activity of PREP on the Z-GP-AMC substrate was measured at room temperature on a Hidex microplate reader by monitoring the fluorescence at an excitation wavelength of 360 nm and an emission wavelength of 465 nm. The reaction mixture contained 20 µM substrate, 2 nM PREP, assay buffer (50 mM Tris, 100 mM NaCl, 1 mM EDTA, pH 7.4) and tested compound (serial dilution from 10-6 to 10-12) in a total volume of 50 µL.

Test [2] concerns the target T2, FAP (Homo sapiens, UniProt Q12884).
T2 sequence (Q12884 1-760): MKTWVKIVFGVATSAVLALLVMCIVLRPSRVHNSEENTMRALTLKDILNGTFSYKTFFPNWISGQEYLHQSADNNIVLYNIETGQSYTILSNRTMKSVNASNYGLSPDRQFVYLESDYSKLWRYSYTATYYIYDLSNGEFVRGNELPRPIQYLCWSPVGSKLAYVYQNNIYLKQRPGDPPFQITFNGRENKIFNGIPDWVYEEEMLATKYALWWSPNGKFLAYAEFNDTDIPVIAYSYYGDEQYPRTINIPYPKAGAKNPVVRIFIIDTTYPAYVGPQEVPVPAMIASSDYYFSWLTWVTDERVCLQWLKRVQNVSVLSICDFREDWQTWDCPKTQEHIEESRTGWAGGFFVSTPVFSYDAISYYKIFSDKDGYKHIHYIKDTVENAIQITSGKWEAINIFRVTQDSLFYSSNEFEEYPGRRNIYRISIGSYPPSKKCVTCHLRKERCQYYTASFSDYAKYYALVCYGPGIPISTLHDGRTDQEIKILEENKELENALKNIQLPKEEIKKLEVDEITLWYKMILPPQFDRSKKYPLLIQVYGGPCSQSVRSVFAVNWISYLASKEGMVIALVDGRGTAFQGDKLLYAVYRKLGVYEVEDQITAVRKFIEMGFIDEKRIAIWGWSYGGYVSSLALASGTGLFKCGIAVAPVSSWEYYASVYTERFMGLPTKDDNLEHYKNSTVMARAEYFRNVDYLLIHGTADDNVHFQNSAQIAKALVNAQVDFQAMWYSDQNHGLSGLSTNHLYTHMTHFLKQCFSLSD
The test is described as follows: In vitro inhibition assay on human FAP (Z-GP-AMC substrate). Conditions: enzymatic assay; 20 µM Z-GP-AMC, 20 nM FAP; unit inferred. Here is the method: Enzymatic activity of human FAP (hFAP) and mouse FAP (mFAP) on the Z-GP-AMC substrate was measured at room temperature on a Hidex microplate reader by monitoring the fluorescence at an excitation wavelength of 360 nm and an emission wavelength of 465 nm. The reaction mixture contained 20 µM substrate, 20 nM FAP, assay buffer (50 mM Tris, 100 mM NaCl, 1 mM EDTA, pH 7.4) and tested compound (serial dilution from 10^-6 to 10^-12) in a total volume of 50 µL.

In test [3] the target is DPP4 (Homo sapiens, UniProt P27487). Kind of test: In vitro inhibition assay on DPP4 (Z-GP-pNA substrate). The conditions noted are these: enzymatic assay; 20 µM Z-GP-pNA; unit inferred.
Chain of DPP4 (P27487 39-766): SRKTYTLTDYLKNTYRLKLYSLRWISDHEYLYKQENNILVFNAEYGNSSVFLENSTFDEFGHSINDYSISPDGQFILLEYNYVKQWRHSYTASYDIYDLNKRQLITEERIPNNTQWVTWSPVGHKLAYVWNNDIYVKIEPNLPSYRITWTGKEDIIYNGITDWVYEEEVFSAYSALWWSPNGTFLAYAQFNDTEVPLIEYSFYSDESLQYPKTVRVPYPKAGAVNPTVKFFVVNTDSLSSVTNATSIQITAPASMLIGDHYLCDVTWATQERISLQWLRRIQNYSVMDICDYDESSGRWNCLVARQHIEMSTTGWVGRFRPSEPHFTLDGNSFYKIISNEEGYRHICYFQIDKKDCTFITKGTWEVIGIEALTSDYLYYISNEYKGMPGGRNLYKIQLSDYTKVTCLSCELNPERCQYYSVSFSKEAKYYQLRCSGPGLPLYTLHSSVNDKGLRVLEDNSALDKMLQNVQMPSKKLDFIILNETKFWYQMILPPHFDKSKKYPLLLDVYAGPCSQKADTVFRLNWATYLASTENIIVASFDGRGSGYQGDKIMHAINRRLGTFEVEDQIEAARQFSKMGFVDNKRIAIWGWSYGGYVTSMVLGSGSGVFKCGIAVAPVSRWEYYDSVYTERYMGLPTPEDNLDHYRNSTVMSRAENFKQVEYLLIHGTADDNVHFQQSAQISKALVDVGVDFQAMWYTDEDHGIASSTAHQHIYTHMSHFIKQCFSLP

By IC50 is commonly meant the midpoint of a concentration-inhibition curve. The low end stands for greater potency, the high end for weaker potency.

In the case of `N#C[C@@H]1CC(F)(F)CN1C(=O)CNC(=O)c1ccnc2c(OCCCNC(=O)CN3CCN(CC(=O)O)CCN(CC(=O)O)CCN(CC(=O)O)CC3)cccc12` [eFAP-6, (S)-2,2',2"-(10-(2-((3-((4-((2-(2-Cyano-4,4-difluoropyrrolidin-1-yl)-2-oxoethyl)carbamoyl)quinolin-8-yl)oxy)propyl)amino)-2-oxoethyl)-1,4,7,10-tetraazacyclododecane-1,4,7-triyl)triacetic acid], the half-inhibitory concentration (IC50) is 108 ± 42 nM in test [1], 1.6 ± 0.5 nM in test [2] and above 10000 nM in test [3].
